From article PMC12123458, “Unraveling Small Molecule-Mediated Sirtuin 3 Activation at a Distinct Binding Site for Cardioprotective Therapies” (ACS Central Science, 2025)

What was measured:
hSirt3 = target: T1, hSirt3 (Homo sapiens, UniProt Q9NTG7); experiment: Mass spectrometry-based deacetylation assay, substrate […]-Ac; format: biochemical; settings: substrate GELLEAIK-Ac; SKLB-11A 100 μM
T1 sequence (Q9NTG7 1-399): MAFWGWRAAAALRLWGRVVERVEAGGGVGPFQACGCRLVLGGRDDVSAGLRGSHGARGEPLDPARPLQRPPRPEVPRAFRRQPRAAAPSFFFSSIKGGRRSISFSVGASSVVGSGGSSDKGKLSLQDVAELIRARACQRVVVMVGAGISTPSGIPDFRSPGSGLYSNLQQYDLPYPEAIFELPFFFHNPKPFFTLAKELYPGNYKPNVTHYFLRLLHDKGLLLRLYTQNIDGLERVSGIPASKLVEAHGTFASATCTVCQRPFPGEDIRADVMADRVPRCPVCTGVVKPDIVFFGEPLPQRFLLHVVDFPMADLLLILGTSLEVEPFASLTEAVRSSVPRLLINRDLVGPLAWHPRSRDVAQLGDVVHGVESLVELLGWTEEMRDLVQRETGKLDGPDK

SIRT6 = SIRT6 (Homo sapiens, UniProt Q8N6T7); experiment: SPR binding to SIRT6
Method: The affinity of SKLB-11A for SIRT1, SIRT2, SIRT3, SIRT5, and SIRT6 was determined using a Reichert 4SPR system (Reichert Technologies, Depew, NY, USA). Proteins at 200 μg/mL were immobilized on a dextran-coated sensor chip (13206066) until reaching ≥12,000 response units (RUs). A dual-flow channel setup was used, reserving one channel for blank controls. SKLB-11A was introduced at varying concentrations for binding and subsequent dissociation kinetic analysis. Data acquisition was at 25 °C utilizing a PBST running buffer (pH 7.4). The equilibrium dissociation constant (K d) was computed from steady-state affinity measurements using TraceDrawer software.

wild-type SIRT3 = target: T2, wild-type SIRT3 (Homo sapiens, UniProt Q9NTG7); experiment: BLI binding of SKLB-11A to wild-type SIRT3; settings: read-out: dissociation constant, wild-type SIRT3
T2 sequence (Q9NTG7 1-399): T1 sequence (Q9NTG7 1-399)
Method: Binding kinetics of SIRT3 with various compounds were quantified using SSA biosensors on an Octet Red96 system (ForteBio). The assays occurred in 96-well plates, recording wavelength shifts in real-time. Ambient temperature was maintained at 25 °C, with plate agitation at 1000 rpm, and a reaction volume of 200 μL per well. SIRT3 protein and test compounds were prepared in phosphate-buffered saline (PBS, pH 7.4). Biosensors were equilibrated in PBS for 10 min before immobilizing SIRT3 (0.9 μg/mL) for 180 s, followed by a 120-s PBS wash. […] Data analysis was performed using ForteBio’s Octet RED software.

SIRT2 [1] = target: T3, SIRT2 (Homo sapiens, UniProt Q8IXJ6); experiment: Coupled enzymatic assay, acetylated α-tubulin-K25 substrate; format: biochemical; settings: 100 μM
T3 sequence (Q8IXJ6 1-389): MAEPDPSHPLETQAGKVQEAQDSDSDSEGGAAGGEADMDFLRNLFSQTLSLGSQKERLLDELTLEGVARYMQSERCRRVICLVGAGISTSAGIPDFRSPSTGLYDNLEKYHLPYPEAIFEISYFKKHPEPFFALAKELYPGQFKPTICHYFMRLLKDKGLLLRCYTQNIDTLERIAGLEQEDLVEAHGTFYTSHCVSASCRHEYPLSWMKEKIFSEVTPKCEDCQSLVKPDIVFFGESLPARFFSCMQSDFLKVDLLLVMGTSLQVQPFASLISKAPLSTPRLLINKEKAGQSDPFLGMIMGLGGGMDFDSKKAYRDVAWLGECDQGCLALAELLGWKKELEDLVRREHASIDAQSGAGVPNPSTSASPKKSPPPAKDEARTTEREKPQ
Text: (§1) Additionally, we used surface plasmon resonance (SPR) to measure the binding of SKLB-11A to immobilized SIRT3. […] We next evaluated the selectivity of SKLB-11A for different SIRT family members. […] We next examined the functional specificity of SKLB-11A using coupled enzymatic assays with isoform-specific, physiologically relevant substrates: acetylated p53-K381 for SIRT1, acetylated α-tubulin-K25 for SIRT2, acetylated MnSOD-K122 for SIRT3, and succinylated CPS1-K537 for SIRT5 (Supplementary Table S3). […] Using Schrödinger molecular docking simulations, we assessed the binding interactions of SKLB-11A with SIRT isoforms.

SIRT3 = target: T4, SIRT3 (Homo sapiens, UniProt Q9NTG7); experiment: Coupled enzymatic assay, acetylated MnSOD-K122 substrate; format: biochemical; settings: 100 μM
T4 construct: purchased Enzo Life Sciences BML-AK557-0001
T4 sequence (Q9NTG7 1-399): T1 sequence (Q9NTG7 1-399)
Text: as §1

SIRT2 [2] = target: T5, SIRT2 (Rattus norvegicus, UniProt Q5RJQ4); experiment: CETSA of SIRT2 in H9c2 cells; format: cell-based
T5 construct: endogenous in cells; host or cells: H9c2
T5 sequence (Q5RJQ4 1-350): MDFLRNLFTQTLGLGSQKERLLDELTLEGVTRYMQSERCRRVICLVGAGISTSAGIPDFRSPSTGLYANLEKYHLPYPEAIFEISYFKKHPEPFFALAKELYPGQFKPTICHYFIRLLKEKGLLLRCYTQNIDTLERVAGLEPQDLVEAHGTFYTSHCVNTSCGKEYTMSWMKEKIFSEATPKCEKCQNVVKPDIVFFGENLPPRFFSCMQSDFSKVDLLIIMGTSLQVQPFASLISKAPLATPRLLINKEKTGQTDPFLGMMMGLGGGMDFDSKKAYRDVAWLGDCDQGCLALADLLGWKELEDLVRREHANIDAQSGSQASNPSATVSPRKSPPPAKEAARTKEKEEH

H9c2 cells [3] = experiment: Intracellular ROS (DCFH-DA) and mitochondrial membrane potential (JC-1) in Dox-treated H9c2 cells; format: cell-based
Method: Mitochondrial membrane potential and reactive oxygen species (ROS) levels within cells were assessed using the JC-1 Mitochondrial Membrane Potential Assay Kit (Beyotime, Beijing, China) and the DCFH-DA probe (Beyotime, Shanghai, China), respectively, following the manufacturer’s guidelines. , For mitochondrial membrane potential quantification, cells were treated with JC-1 solution and incubated for 20 min at 37 °C in the dark. ROS quantification involved a 25 min incubation at 37 °C in the dark with DCFH-DA solution. Postincubation, cells underwent three gentle washes with prewarmed buffer. Visualization was achieved using a Nikon (Ni-E) fluorescence microscope and quantified by flow cytometry (BD FACS Calibur).

H9c2 cells [4] = experiment: ATP content in Dox-treated H9c2 cells; format: cell-based; settings: 10 μM
Method: ATP concentrations were detected by a firefly luciferin/luciferase-based ATP bioluminescence assay kit (Beyotime, China). The ATP contents were determined as nmol/mg protein by using SYNERGY 4 Microplate Reader (BioTek Instruments).

[5] = test system: myocardial ischemia/reperfusion (I/R) injury model; experiment: Mouse model of myocardial I/R injury; format: in vivo, C57BL/6J mice

Chain of SIRT6 (Q8N6T7 whole entry, species assumed): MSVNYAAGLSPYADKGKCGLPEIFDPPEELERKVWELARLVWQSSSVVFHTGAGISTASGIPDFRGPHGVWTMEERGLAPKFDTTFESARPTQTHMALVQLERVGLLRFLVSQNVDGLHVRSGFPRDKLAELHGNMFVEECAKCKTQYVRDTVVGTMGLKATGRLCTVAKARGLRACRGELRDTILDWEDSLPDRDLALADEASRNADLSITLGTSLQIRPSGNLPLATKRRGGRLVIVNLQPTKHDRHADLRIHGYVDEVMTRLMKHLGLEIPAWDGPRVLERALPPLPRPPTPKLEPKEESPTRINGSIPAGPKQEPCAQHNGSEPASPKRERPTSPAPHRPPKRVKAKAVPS

## COC(=O)c1c(N)n(Cc2ccc(F)cc2)c2nc3ccccc3nc12 [SKLB-11A, Methyl 2-amino-1-(4-fluorobenzyl)-1H-pyrrolo[2,3-b]quinoxaline-3-carboxylate]
hSirt3
  catalytic efficiency of SIRT3 deacetylation (MS assay): significantly increased the catalytic efficiency
SIRT6
  binding to SIRT6: no binding
wild-type SIRT3
  Kd: 33.1 µM
SIRT2 [1]
  effect on basal SIRT2 deacetylation activity: no statistically significant effects
SIRT3
  effect on SIRT3 deacetylation activity: pronounced activation
SIRT2 [2]
  thermal stability of SIRT2 (CETSA): little effect on the thermal stability
H9c2 cells [3]; JC-1
  Dox-induced dissipation of mitochondrial membrane potential (MMP): notably preserved
H9c2 cells [3]; pretreatment, DCFH-DA
  Dox-induced increase of ROS levels: effectively suppressed this increase
H9c2 cells [4]
  ATP levels: capable of increasing ATP levels
[5]; 20 mg/kg ig, 24 h after I/R surgery
  I/R-induced elevations in serum LDH, CK-MB, BNP: partially reversed
[5]; 20 mg/kg ig, Evans blue/TTC, 24 h after I/R, vs I/R group
  infarct size: significant reduction in infarcted areas
[5]; 20 mg/kg ig, Masson's trichrome, 28 d after I/R
  I/R-induced cardiac fibrosis: markedly reduced
[5]; 20 mg/kg/day, ig, 1 week, I/R mice
  cardiac function (EF and FS): restored cardiac function
